Measured values from patent US6734003B2, “Phosphodiesterase 10” (Icos Corporation, priority 1998, dated 2004).
Where two headings read alike, the source gives them in different places.

Experiments:
PDE10 [1] = target: T1, PDE10 (Homo sapiens, UniProt O76083, E580G); experiment: PDE10 inhibition by isozyme-specific PDE inhibitors, cAMP as substrate; format: biochemical
T1 construct: The entire open reading frame of the PDE10 cDNA (clone FB94a) was placed into a yeast ADH vector; made in house; host or cells: Saccharomyces cerevisiae strain BJ2-54 (no endogenous PDE activity); 100,000 x g supernatant of the lysate, not purified
T1 sequence (O76083 1-466 isoform O76083-3 E453G): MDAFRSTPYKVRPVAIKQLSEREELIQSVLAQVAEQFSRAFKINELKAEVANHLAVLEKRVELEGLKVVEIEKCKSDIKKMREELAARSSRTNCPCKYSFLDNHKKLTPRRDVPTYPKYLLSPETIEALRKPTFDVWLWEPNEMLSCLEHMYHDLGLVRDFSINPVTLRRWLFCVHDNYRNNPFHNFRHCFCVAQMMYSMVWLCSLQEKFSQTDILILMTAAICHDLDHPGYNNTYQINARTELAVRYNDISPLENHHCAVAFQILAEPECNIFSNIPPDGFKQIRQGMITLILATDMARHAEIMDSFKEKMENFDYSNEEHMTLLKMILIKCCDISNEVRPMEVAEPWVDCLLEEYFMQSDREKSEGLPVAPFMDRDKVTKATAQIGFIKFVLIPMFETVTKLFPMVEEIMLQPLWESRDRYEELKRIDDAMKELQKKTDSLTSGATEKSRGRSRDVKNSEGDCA
Procedure: The entire open reading frame of the PDE10 cDNA (clone FB94a) was placed into a yeast ADH vector including the alcohol dehydrogenase promoter. The construct was built in two steps.
Following transformation into BJ2-54, a yeast strain lacking endogenous PDE activity, a colony was selected, streaked out on SC-leu plates and a single colony carrying the PDE10 construct was chosen for further characterization. Following overnight growth in SC-leu media the culture was diluted 1:250 in fresh SC-leu and grown overnight at 30° C. until it reached a density of 10^7 cells/ml. The cells were collected by centrifugation, washed once with YEP 3% glycerol media, resuspended in YEP containing 3% glycerol, and grown at 30° C. for another 24 hours. The cells were harvested by centrifugation, washed with water, and frozen at −70° C. until use. Prior to use, an aliquot of the yeast extract was analyzed by SDS PAGE. A protein specific to yeast carrying the PDE10 expression construct that migrated on the SDS PAGE gels with the expected mobility (55.5 kDa) was observed by Coomassie blue staining.
Yeast cells (1×10^10) were thawed with 200 μg/ml each of pepstatin A, leupeptin, and aprotinin 1 mM DTT, and 20 μg/ml calpain inhibitors (I and II). Two hundred μl of glass beads (0.5 mm, acid washed) were added, and the mixture was vortexed for eight cycles of 30 seconds each. Samples were cooled for 4.5 minutes at 4° C. between cycles. After lysis, 0.8 ml lysis buffer was added, the lysate separated from the beads, and the lysate centrifuged for 30 minutes at 100,000×g in a Beckman TL-100 tabletop centrifuge. The supernatant was aliquoted, frozen in dry ice/ethanol, and stored at −70° C.
Kinetic assays were performed on a BIOMEK® 1000 programmable robotic station (Beckman Instruments). […] The highest nucleotide concentration contained 1 to 1.5 million Cerenkov counts of ^32P-labeled substrate per assay. […] The enzyme dilution buffer consisted of 25 mM Tris-HCl pH 8.9, 5 μM ZnSO4 5 mM MgCl2, 0.1 mM DTT, 100 mM NaCl and 0.1 mg/ml BSA (Calbiochem; fatty acid free). Activity at each substrate concentration was derived from a linear fit of successive four-fold enzyme dilutions across the plate.
Assays were performed at 30° C. for 15 minutes. After 12 minutes, 5 μl snake venom from Crotalus atrox (15 mg/ml protein) was added to each reaction. Assays were stopped by addition 200 μl of charcoal suspension (25 mg/ml activated charcoal in 0.1 M monobasic potassium phosphate). The plate was centrifuged at 2600 rpm, and 200 μl of each supernatant was transferred into Microbeta® counting plates and counted on a WALLAC Microbeta® by Cerenkov counting. Data were evaluated with a predesigned Microsoft Excel® Spreadsheet, and the kinetic parameters were fitted to a Michaelis-Menton model using the program Table Curve® from Jandel Scientific.

PDE3 = conditions: target family PDE3; Manganiello et al. 1990; cited from earlier work
PDE5 = PDE5 (Homo sapiens, UniProt O76074); conditions: target family PDE5; Coste and Grodin 1995; cited from earlier work
PDE2 = PDE2 (Homo sapiens, UniProt O00408); conditions: target family PDE2; Podzuweit et al. 1995; cited from earlier work
Sequence of PDE2 (O00408 whole entry): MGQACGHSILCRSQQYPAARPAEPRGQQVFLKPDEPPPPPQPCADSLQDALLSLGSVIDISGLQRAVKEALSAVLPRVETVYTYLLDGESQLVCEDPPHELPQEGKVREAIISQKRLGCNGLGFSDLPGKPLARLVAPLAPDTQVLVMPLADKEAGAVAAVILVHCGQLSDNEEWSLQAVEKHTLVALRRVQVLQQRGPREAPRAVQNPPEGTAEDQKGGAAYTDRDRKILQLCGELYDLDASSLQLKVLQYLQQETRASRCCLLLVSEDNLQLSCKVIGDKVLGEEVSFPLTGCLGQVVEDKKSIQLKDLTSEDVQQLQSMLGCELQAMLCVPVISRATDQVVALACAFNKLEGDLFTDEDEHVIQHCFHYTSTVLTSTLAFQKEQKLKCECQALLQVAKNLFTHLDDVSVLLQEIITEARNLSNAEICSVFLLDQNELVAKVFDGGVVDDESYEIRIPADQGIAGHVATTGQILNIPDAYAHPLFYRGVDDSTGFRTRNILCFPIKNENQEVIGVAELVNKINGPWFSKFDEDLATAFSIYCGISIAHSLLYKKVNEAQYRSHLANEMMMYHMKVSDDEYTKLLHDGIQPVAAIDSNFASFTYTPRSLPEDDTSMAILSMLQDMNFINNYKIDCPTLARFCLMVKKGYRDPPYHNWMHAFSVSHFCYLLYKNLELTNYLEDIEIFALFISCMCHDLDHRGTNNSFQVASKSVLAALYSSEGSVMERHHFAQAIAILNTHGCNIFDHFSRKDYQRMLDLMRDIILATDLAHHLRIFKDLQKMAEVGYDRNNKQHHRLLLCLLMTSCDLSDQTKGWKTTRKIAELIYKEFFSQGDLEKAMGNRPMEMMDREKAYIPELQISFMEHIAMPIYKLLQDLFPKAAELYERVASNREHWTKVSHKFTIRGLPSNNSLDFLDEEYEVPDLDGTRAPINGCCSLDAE

PDE4 = conditions: target family PDE4; Bolger et al. 1993; cited from earlier work
PDE10 [2] = target: T1, PDE10; experiment: Kinetic assays of recombinant PDE10 yeast extract (cAMP and cGMP hydrolysis); format: biochemical
non-specific = conditions: Coste and Grodin 1995, read-out: Target Family IC50; cited from earlier work
[3] = cAMP as substrate, recombinant PDE10 (clone FB94a) yeast extract

In the case of `CN(C(=O)CCCOc1ccc2[nH]c(=O)ccc2c1)C1CCCCC1` [Cilostamide], the IC50 (PDE10 [1]) is given as 100 µM and the IC50 (PDE3) is given as 0.04 to 0.9 µM.

For `CCCOc1ccc(NS(C)(=O)=O)cc1-c1nc2c(c(C)nn2C)c(=O)[nH]1` [DMPPO], the IC50 (PDE10 [1]; [3]) is listed as 9 µM and the IC50 (PDE5) is listed as 0.003 µM.

For `CCCCCCC(C(C)O)n1cnc2c(N)ncnc21` (stereo not drawn) [EHNA, erythro-9-(2-hydroxy-3-nonyl)adenine], the IC50 (PDE10 [1]) is given as 477 µM and the IC50 (PDE2) is given as 0.8 µM.

In the case of `COc1ccc(C2CNC(=O)C2)cc1OC1CCCC1` (stereo not drawn) [Rolipram, rolipram], the IC50 (PDE10 [1]) is listed as 529 µM and the IC50 (PDE4) is listed as […].

With `Nc1nc2c(ncn2[C@@H]2O[C@@H]3COP(=O)(O)O[C@H]3[C@H]2O)c(=O)[nH]1` [cGMP] the “hydrolytic activity in the extract” value (PDE10 [2]; PDE10 yeast extract) was 0.035 (±0.01) μmol/min/mg and the Km (PDE10 [2]; substrate of PDE10, 30° C., Michaelis-Menton fit) was 5 nM.

For isobutyl methyl xanthine [IBMX], the IC50 (non-specific) is given as 2 to 20 µM and the IC50 (PDE10 [1]; [3]) is given as 59 µM.
